# PubChem BioAssay (NCI)
#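 Briefly, cells in 96-well plates were exposed to five compound concentrations for 48 h, and endpoints were estimated by linear interpolation. TGI denotes the concentration required for complete inhibition of growth.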
# How the values were obtained:
# Experiment in all cases: NCI tumour cell line growth inhibition, 48 h
# SF-295 CNS = tested on: SF-295 CNS
# HL-60(TB) leukemia = tested on: HL-60(TB) leukemia
# SK-MEL-5 melanoma = tested on: SK-MEL-5 melanoma
# SR leukemia = tested on: SR leukemia
# CCRF-CEM leukemia = tested on: CCRF-CEM leukemia
# HCT-15 colon = tested on: HCT-15 colon
# SK-MEL-2 melanoma = tested on: SK-MEL-2 melanoma
# RXF 393 renal = tested on: RXF 393 renal
# UACC-62 melanoma = tested on: UACC-62 melanoma
# BT-549 breast = tested on: BT-549 breast
# NCI-H23 lung = tested on: NCI-H23 lung
# HT29 colon = tested on: HT29 colon
# HOP-62 NSCLC = tested on: HOP-62 NSCLC
# IGROV1 ovarian = tested on: IGROV1 ovarian
# DU-145 prostate = tested on: DU-145 prostate
# MALME-3M melanoma = tested on: MALME-3M melanoma
# SK-OV-3 ovarian = tested on: SK-OV-3 ovarian
# ACHN renal = tested on: ACHN renal
# K-562 leukemia = tested on: K-562 leukemia
# OVCAR-5 ovarian = tested on: OVCAR-5 ovarian
# NCI-H226 lung = tested on: NCI-H226 lung
# OVCAR-3 ovarian = tested on: OVCAR-3 ovarian
# HS 578T breast = tested on: HS 578T breast
# OVCAR-4 ovarian = tested on: OVCAR-4 ovarian
# M14 melanoma = tested on: M14 melanoma
# SNB-19 CNS = tested on: SNB-19 CNS
# SNB-75 CNS = tested on: SNB-75 CNS
# MCF7 breast = tested on: MCF7 breast
# NCI-H522 lung = tested on: NCI-H522 lung
# SN12C renal = tested on: SN12C renal
# SK-MEL-28 melanoma = tested on: SK-MEL-28 melanoma
# PC-3 prostate = tested on: PC-3 prostate
# MDA-MB-435 = tested on: MDA-MB-435
# 786-0 renal = tested on: 786-0 renal
# SF-268 CNS = tested on: SF-268 CNS
# HCC-2998 colon = tested on: HCC-2998 colon
# A549 NSCLC = tested on: A549 NSCLC
# CAKI-1 renal = tested on: CAKI-1 renal
# EKVX NSCLC = tested on: EKVX NSCLC
# UACC-257 melanoma = tested on: UACC-257 melanoma
# HCT-116 colon = tested on: HCT-116 colon
# MDA-N = tested on: MDA-N
# SW-620 colon = tested on: SW-620 colon
# NCI/ADR-RES ovarian = tested on: NCI/ADR-RES ovarian
# KM12 colon = tested on: KM12 colon
# RPMI-8226 leukemia = tested on: RPMI-8226 leukemia
# TK-10 renal = tested on: TK-10 renal
# T-47D breast = tested on: T-47D breast
# HOP-92 NSCLC = tested on: HOP-92 NSCLC
# MOLT-4 leukemia = tested on: MOLT-4 leukemia
# UO-31 renal = tested on: UO-31 renal
# SF-539 CNS = tested on: SF-539 CNS
# OVCAR-8 ovarian = tested on: OVCAR-8 ovarian
# LOX IMVI melanoma = tested on: LOX IMVI melanoma
# COLO 205 colon = tested on: COLO 205 colon
# U251 CNS = tested on: U251 CNS
# A498 renal = tested on: A498 renal
# MDA-MB-231 breast = tested on: MDA-MB-231 breast
compound,measurement,setting,value
CC1(C)CN=C(Nc2ccc(F)cc2)S1,TGI,SF-295 CNS,> 100 µM
same,TGI,HL-60(TB) leukemia,> 100 µM
same,TGI,SK-MEL-5 melanoma,> 100 µM
same,TGI,SR leukemia,> 100 µM
same,TGI,CCRF-CEM leukemia,> 100 µM
same,TGI,HCT-15 colon,> 100 µM
same,TGI,SK-MEL-2 melanoma,> 100 µM
same,TGI,RXF 393 renal,> 100 µM
same,TGI,UACC-62 melanoma,> 100 µM
same,TGI,BT-549 breast,> 100 µM
same,TGI,NCI-H23 lung,> 100 µM
same,TGI,HT29 colon,> 100 µM
same,TGI,HOP-62 NSCLC,> 100 µM
same,TGI,IGROV1 ovarian,> 100 µM
same,TGI,DU-145 prostate,> 100 µM
same,TGI,MALME-3M melanoma,> 100 µM
same,TGI,SK-OV-3 ovarian,> 100 µM
same,TGI,ACHN renal,> 100 µM
same,TGI,K-562 leukemia,> 100 µM
same,TGI,OVCAR-5 ovarian,> 100 µM
same,TGI,NCI-H226 lung,> 100 µM
same,TGI,OVCAR-3 ovarian,> 100 µM
same,TGI,HS 578T breast,> 100 µM
same,TGI,OVCAR-4 ovarian,> 100 µM
same,TGI,M14 melanoma,> 100 µM
same,TGI,SNB-19 CNS,> 100 µM
same,TGI,SNB-75 CNS,> 100 µM
same,TGI,MCF7 breast,> 100 µM
same,TGI,NCI-H522 lung,> 100 µM
same,TGI,SN12C renal,> 100 µM
same,TGI,SK-MEL-28 melanoma,> 100 µM
same,TGI,PC-3 prostate,> 100 µM
same,TGI,MDA-MB-435,> 100 µM
same,TGI,786-0 renal,> 100 µM
same,TGI,SF-268 CNS,> 100 µM
same,TGI,HCC-2998 colon,> 100 µM
same,TGI,A549 NSCLC,> 100 µM
same,TGI,CAKI-1 renal,> 100 µM
same,TGI,EKVX NSCLC,> 100 µM
same,TGI,UACC-257 melanoma,> 100 µM
same,TGI,HCT-116 colon,> 100 µM
same,TGI,MDA-N,> 100 µM
same,TGI,SW-620 colon,> 100 µM
same,TGI,NCI/ADR-RES ovarian,> 100 µM
same,TGI,KM12 colon,> 100 µM
same,TGI,RPMI-8226 leukemia,> 100 µM
same,TGI,TK-10 renal,> 100 µM
same,TGI,T-47D breast,> 100 µM
same,TGI,HOP-92 NSCLC,> 100 µM
same,TGI,MOLT-4 leukemia,> 100 µM
same,TGI,UO-31 renal,> 100 µM
same,TGI,SF-539 CNS,> 100 µM
same,TGI,OVCAR-8 ovarian,> 100 µM
same,TGI,LOX IMVI melanoma,> 100 µM
same,TGI,COLO 205 colon,> 100 µM
same,TGI,U251 CNS,> 100 µM
O=c1c2ccc(Cl)cc2oc2c(CNc3ccc(S(=O)(=O)Nc4nccs4)cc3)cccc12,TGI,SF-295 CNS,> 100 µM
same,TGI,SK-MEL-5 melanoma,> 100 µM
same,TGI,SR leukemia,> 100 µM
same,TGI,CCRF-CEM leukemia,> 100 µM
same,TGI,HCT-15 colon,> 100 µM
same,TGI,A498 renal,> 100 µM
same,TGI,SK-MEL-2 melanoma,> 100 µM
same,TGI,RXF 393 renal,> 100 µM
same,TGI,UACC-62 melanoma,> 100 µM
same,TGI,BT-549 breast,> 100 µM
same,TGI,NCI-H23 lung,> 100 µM
same,TGI,MDA-MB-231 breast,> 100 µM
same,TGI,HT29 colon,> 100 µM
same,TGI,HOP-62 NSCLC,> 100 µM
same,TGI,IGROV1 ovarian,> 100 µM
same,TGI,DU-145 prostate,> 100 µM
same,TGI,MALME-3M melanoma,> 100 µM
same,TGI,SK-OV-3 ovarian,> 100 µM
same,TGI,ACHN renal,> 100 µM
same,TGI,K-562 leukemia,> 100 µM
same,TGI,OVCAR-5 ovarian,> 100 µM
same,TGI,NCI-H226 lung,> 100 µM
same,TGI,OVCAR-3 ovarian,> 100 µM
same,TGI,OVCAR-4 ovarian,> 100 µM
same,TGI,M14 melanoma,> 100 µM
same,TGI,SNB-19 CNS,> 100 µM
same,TGI,MCF7 breast,> 100 µM
same,TGI,NCI-H522 lung,> 100 µM
same,TGI,SN12C renal,> 100 µM
same,TGI,SK-MEL-28 melanoma,> 100 µM
same,TGI,PC-3 prostate,> 100 µM
same,TGI,MDA-MB-435,> 100 µM
same,TGI,786-0 renal,> 100 µM
same,TGI,SF-268 CNS,> 100 µM
same,TGI,HCC-2998 colon,> 100 µM
same,TGI,A549 NSCLC,> 100 µM
same,TGI,CAKI-1 renal,5.51 µM
same,TGI,EKVX NSCLC,> 100 µM
same,TGI,UACC-257 melanoma,> 100 µM
same,TGI,HCT-116 colon,> 100 µM
same,TGI,MDA-N,> 100 µM
same,TGI,SW-620 colon,> 100 µM
same,TGI,NCI/ADR-RES ovarian,> 100 µM
same,TGI,KM12 colon,> 100 µM
same,TGI,RPMI-8226 leukemia,> 100 µM
same,TGI,TK-10 renal,> 100 µM
same,TGI,T-47D breast,> 100 µM
same,TGI,HOP-92 NSCLC,> 100 µM
same,TGI,MOLT-4 leukemia,> 100 µM
same,TGI,UO-31 renal,> 100 µM
same,TGI,SF-539 CNS,> 100 µM
same,TGI,OVCAR-8 ovarian,> 100 µM
same,TGI,LOX IMVI melanoma,> 100 µM
same,TGI,COLO 205 colon,> 100 µM
same,TGI,U251 CNS,> 100 µM
